This is an account of results in patent US10654834B2 (Venenum Biodesign, LLC, priority 2016, dated 2020).

Where two headings read alike, the source gives them in different places.

The target in one data set is T1, human TGR5 receptor (Homo sapiens, UniProt Q8TDU6).
T1 construct: host or cells: CHO-K1 (hTGR5-CHO)
T1 sequence (Q8TDU6 1-330): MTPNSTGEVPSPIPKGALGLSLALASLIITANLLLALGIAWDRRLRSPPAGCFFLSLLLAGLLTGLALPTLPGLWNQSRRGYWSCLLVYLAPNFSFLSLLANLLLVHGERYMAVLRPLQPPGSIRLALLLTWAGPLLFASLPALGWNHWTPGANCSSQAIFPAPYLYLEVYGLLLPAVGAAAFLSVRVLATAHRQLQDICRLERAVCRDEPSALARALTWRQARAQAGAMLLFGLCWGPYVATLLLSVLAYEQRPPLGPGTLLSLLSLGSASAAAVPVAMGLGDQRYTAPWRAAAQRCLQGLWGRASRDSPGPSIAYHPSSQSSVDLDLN
Briefly: Human TGR5 cAMP production assay (hTGR5-CHO cells, DiscoveRx cAMP XS+ kit). The data set is classed as cell-based. As to conditions: luminescent cAMP assay, read-out: Human TGR5 Lum. cAMP Activity (EC50). In outline: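 EC50 values come from luminescent enzyme-complementation cAMP detection, read after overnight incubation. Beforehand, hTGR5-expressing CHO-K1 cells with IBMX and anti-cAMP antibody were exposed 1 h at room temperature to serially diluted (half-log) compounds.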
On the technique in general: Cyclic AMP is a second messenger, typically raised through Gs and lowered through Gi signalling.

The next data set concerns the target T2, mouse TGR5 receptor (Mus musculus, UniProt Q80SS6).
T2 construct: host or cells: HEK293-EBNA (293 c18, ATCC CRL10852)
T2 sequence (Q80SS6 1-329): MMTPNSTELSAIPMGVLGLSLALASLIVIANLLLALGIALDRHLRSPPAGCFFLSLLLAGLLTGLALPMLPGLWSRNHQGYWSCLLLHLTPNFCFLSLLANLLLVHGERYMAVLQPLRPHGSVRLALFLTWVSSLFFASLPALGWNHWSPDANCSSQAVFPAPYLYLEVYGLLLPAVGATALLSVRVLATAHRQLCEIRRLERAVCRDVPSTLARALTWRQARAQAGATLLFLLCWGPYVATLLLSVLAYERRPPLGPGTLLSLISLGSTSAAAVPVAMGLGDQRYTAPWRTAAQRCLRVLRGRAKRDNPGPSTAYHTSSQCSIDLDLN
Briefly: Mouse TGR5 HTRF cAMP production assay (HEK293-EBNA cells, Cisbio cAMP HiRange kit). The data set is classed as cell-based. As to conditions: HEK293-EBNA cells overexpressing mouse TGR5, HTRF cAMP assay. Put shortly: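 cAMP accumulation was read by competitive HTRF after 1 h room-temperature compound treatment, with a further 1 h conjugate incubation. Cells were mouse TGR5-overexpressing HEK293-EBNA in serum-free DMEM plus 500 μM IBMX. Compounds ran as 12-point half-log series in duplicate, and EC50 values were reported.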
(In TR-FRET formats the signal depends on donor and acceptor labels being close together.)

Data set [1] can be described thus: Pharmacokinetic profile in mice after oral gavage. The data set is classed as in vivo, mouse. On the set-up: unit: ng/mL. As to conditions: fasted male Hilltop mice, 10 mg/kg oral gavage, plasma. Here is the method:
Pharmacokinetic Profile in Mice
In this series of studies, the pharmacokinetic profile characteristics of compounds of the present invention were evaluated. The plasma concentration levels of the compounds were monitored in the blood stream (i.e., plasma) after oral gavage using Cmax, and area under the curve (AUC).
8 week old male Hilltop mice were fasted overnight. Animals were randomized into groups (n=9) by body weight. Mice were dosed with 10 mg/kg compound (in 20% PEG400/80% 0.5% carboxymethylcellulose (medium viscosity)+0.25% Tween-80) at a volume of […] through oral gavage. Blood was collected via orbital bleeding at 0, 0.25, 0.5, 1, 2, and 4 h post-dose, with no one mouse having more than 3 blood draws. Blood was collected in EDTA coated tubes. Samples were stored at −20° C. until analysis.
Quantitation of compound levels in plasma was accomplished by LC-MS/MS analysis. Standard curve and quality control samples were prepared in male CD-1 mouse plasma containing EDTA K^2+ as an anticoagulant at final concentrations ranging from 500 to 0.1 ng/mL. The plasma samples, calibration curve standards, and quality control samples were prepared in an identical method in a 96-well deep plate (1 mL) with a quenching solution (1:1 mixed acetonitrile:methanol containing the internal standard Reserpine @ 400 ng/mL). Low volume samples were supplemented with CD-1 mouse plasma. The plate was mixed on multi-tube vortexer for 1 min and centrifuged at 4000 rpm for 30 min at 4° C. (Sorvall® Super T21) before LC-MS/MS analysis. LC conditions were developed and optimized based on each compound as needed. The outlet of the column was coupled to AB Sciex 4000 QTrap Mass Spectrometer (AB Sciex, Brugg Switzerland). Detection was carried out using multiple reaction monitoring mode with positive-ion detection focusing. The pharmacokinetic parameters were derived from the plasma-time data and calculated using the standard non-compartmental method with WinNonlin (Pharsight, Mountain View, Calif.) or PK Solver (Comp. Meth. Prog. Biomed. (2010), 99, 306-314).
Values reported are the mean plasma concentration of three mice. […]

As for `N#Cc1ccc(CCNC(=O)[C@@H]2CCCN2c2cc(N3CCC(CCCNC(=O)NCS(=O)(=O)O)CC3)nc(C(F)(F)F)n2)cc1` [Compound 118, (S)-(3-(3-(1-(6-(2-((4-cyanophenethyl)carbamoyl)pyrrolidin-1-yl)-2-(trifluoromethyl)pyrimidin-4-yl)piperidin-4-yl)propyl)ureido)methanesulfonic acid], the concentration for a half-maximal effect (EC50) on human TGR5 receptor and on mouse TGR5 receptor was < 100 nM throughout. The peak concentration (Cmax) (as a rule, the peak of the concentration-time curve) in data set [1] (mouse, read-out: Cmax) was found to be 7.9 ng/mL.
`N=C(N)NCCC[C@H](NC(=O)CCCC1CCN(c2cc(N3CCC[C@H]3C(=O)NCCc3ccc(C(F)(F)F)cc3)nc(C(F)(F)F)n2)CC1)C(=O)O` [Compound 74, (S)-5-guanidino-2-(4-(1-(2-(trifluoromethyl)-6-((S)-2-((4-(trifluoromethyl)phenethyl)carbamoyl)pyrrolidin-1-yl)pyrimidin-4-yl)piperidin-4-yl)butanamido)pentanoic acid]: the EC50 on human TGR5 receptor and on mouse TGR5 receptor was < 100 nM each time. In data set [1] (mouse, read-out: Cmax), the highest concentration (Cmax) came out at 3.6 ng/mL.
Take `N#Cc1ccc(CCNC(=O)[C@@H]2CCCN2c2cc(N3CCC(CCCNC(=O)NCCS(=O)(=O)O)CC3)nc(C(F)(F)F)n2)cc1` [Compound 119, (S)-2-(3-(3-(1-(6-(2-((4-cyanophenethyl)carbamoyl)pyrrolidin-1-yl)-2-(trifluoromethyl)pyrimidin-4-yl)piperidin-4-yl)propyl)ureido)-ethanesulfonic acid]: the concentration giving a half-maximal response (EC50) on human TGR5 receptor and at mouse TGR5 receptor was < 100 nM each time. The Cmax in data set [1] (mouse, read-out: Cmax) worked out at 16 ng/mL.
For `O=C(CCCC1CCN(c2cc(N3CCC[C@H]3C(=O)NCCc3ccc(C(F)(F)F)cc3)nc(C(F)(F)F)n2)CC1)NCCNc1ncnc2[nH]cnc12` [Compound 95, (S)-1-(6-(4-(4-((2-((9H-purin-6-yl)amino)ethyl)amino)-4-oxobutyl)piperidin-1-yl)-2-(trifluoromethyl)pyrimidin-4-yl)-N-(4-(trifluoromethyl)phenethyl)pyrrolidine-2-carboxamide], the EC50 on human TGR5 receptor and on mouse TGR5 receptor was < 100 nM each time. Also, the highest concentration (Cmax) in data set [1] (mouse, read-out: Cmax) came out at 2 ng/mL.
On to `N#Cc1ccc(CCNC(=O)[C@@H]2CCCN2c2cc(N3CCC(CCNC(=O)NCCOCCOCCOCCC(=O)O)CC3)nc(C(F)(F)F)n2)cc1` [Compound 364, (S)-1-(1-(6-(2-((4-cyanophenethyl)carbamoyl)pyrrolidin-1-yl)-2-(trifluoromethyl)pyrimidin-4-yl)piperidin-4-yl)-4-oxo-8,11,14-trioxa-3,5-diazaheptadecan-17-oic acid], for which the EC50 on human TGR5 receptor and on mouse TGR5 receptor was < 100 nM in each case. The maximum concentration (Cmax) in data set [1] (mouse, read-out: Cmax) came to 8 ng/mL.
With `N#Cc1ccc(CCNC(=O)[C@@H]2CCCN2c2cc(N3CCC(CCCC(=O)NCCNc4ncc(C(=O)O)cn4)CC3)nc(C(F)(F)F)n2)cc1` [Compound 98, (S)-2-((2-(4-(1-(6-(2-((4-cyanophenethyl)carbamoyl)pyrrolidin-1-yl)-2-(trifluoromethyl)pyrimidin-4-yl)piperidin-4-yl)butanamido)ethyl)-amino)pyrimidine-5-carboxylic acid], the concentration for a half-maximal effect (EC50) at human TGR5 receptor and on mouse TGR5 receptor was < 100 nM each time. The Cmax in data set [1] (mouse, read-out: Cmax) is 12 ng/mL.
For the compound `N#Cc1ccc(CCNC(=O)[C@@H]2CCCN2c2cc(N3CCC(OCC#CCO)CC3)nc(C(F)(F)F)n2)cc1` [Compound 26], the EC50 at human TGR5 receptor and on mouse TGR5 receptor was < 100 nM throughout. In addition, the Cmax in data set [1] (mouse, read-out: Cmax) stood at 55 ng/mL.
On to `O=C(CCCC1CCN(c2cc(N3CCC[C@H]3C(=O)NCCc3ccc(C(F)(F)F)cc3)nc(C(F)(F)F)n2)CC1)NCCNc1cc(N(CCO)CCO)ncn1` [Compound 111], for which the half-maximal effective concentration (EC50) at human TGR5 receptor and at mouse TGR5 receptor was < 100 nM throughout. Besides, the Cmax in data set [1] (mouse, read-out: Cmax) was found to be 5.3 ng/mL.
Turning to `N#Cc1ccc(CCNC(=O)[C@@H]2CCCN2c2cc(N3CCC(CCCC(=O)N[C@H](CC(=O)O)C(=O)O)CC3)nc(C(F)(F)F)n2)cc1` [Compound 75, (R)-2-(4-(1-(6-((S)-2-((4-cyanophenethyl)carbamoyl)pyrrolidin-1-yl)-2-(trifluoromethyl)pyrimidin-4-yl)piperidin-4-yl)butanamido)succinic acid], the EC50 at human TGR5 receptor and on mouse TGR5 receptor was < 100 nM throughout. The peak concentration (Cmax) in data set [1] (mouse, read-out: Cmax) is 22 ng/mL.
Consider `O=C(O)CN1CCC(CCCC2CCN(c3cc(N4CC[C@H]4C(=O)NCCc4ccc(C(F)(F)F)cc4)nc(C(F)(F)F)n3)CC2)CC1` [Compound 281, (S)-2-(4-(3-(1-(2-(trifluoromethyl)-6-(2-((4-(trifluoromethyl)phenethyl)carbamoyl)-azetidin-1-yl)pyrimidin-4-yl)piperidin-4-yl)propyl)piperidin-1-yl)acetic acid], for which the EC50 at human TGR5 receptor and at mouse TGR5 receptor was < 100 nM each time. In data set [1] (mouse, read-out: Cmax), the peak concentration (Cmax) was 92 ng/mL.
For the compound `COc1cc(C(F)(F)F)ccc1CCNC(=O)[C@@H]1CCCN(c2cc(N3CCC(CCO)CC3)nc(C(F)(F)F)n2)C1` [Compound 332, (R)-1-(6-(4-(2-hydroxyethyl)piperidin-1-yl)-2-(trifluoromethyl)pyrimidin-4-yl)-N-(2-methoxy-4-(trifluoromethyl)-phenethyl)piperidine-3-carboxamide], the EC50 at human TGR5 receptor and on mouse TGR5 receptor was < 100 nM throughout. The Cmax in data set [1] (mouse, read-out: Cmax) came to 37 ng/mL.
Consider `N#Cc1ccc(CCNC(=O)[C@@H]2CCCN2c2cc(N3CCC(CCNS(=O)(=O)CCNc4ncc(C(=O)O)cn4)CC3)nc(C(F)(F)F)n2)cc1` [Compound 117, (S)-2-((2-(N-(2-(1-(6-(2-((4-cyanophenethyl)carbamoyl)pyrrolidin-1-yl)-2-(trifluoromethyl)pyrimidin-4-yl)piperidin-4-yl)ethyl)sulfamoyl)ethyl)amino)-pyrimidine-5-carboxylic acid], for which the concentration giving a half-maximal response (EC50) on human TGR5 receptor and on mouse TGR5 receptor was < 100 nM in each case. In addition, the Cmax in data set [1] (mouse, read-out: Cmax) was determined as 6.5 ng/mL.
`N#Cc1ccc(CCNC(=O)[C@@H]2CCN2c2cc(N3CCC(CCNS(=O)(=O)NCCC(=O)O)CC3)nc(C(F)(F)F)n2)cc1` [Compound 355]: the EC50 on human TGR5 receptor and at mouse TGR5 receptor was < 100 nM each time. The compound further returned a Cmax in data set [1] of 48 ng/mL.
In the case of `N#Cc1ccc(CCNC(=O)[C@@H]2CCCN2c2cc(N3CCC(COCC(=O)NCCS(=O)(=O)O)CC3)nc(C(F)(F)F)n2)cc1` [Compound 89, (S)-2-(2-((1-(6-(2-((4-cyanophenethyl)carbamoyl)pyrrolidin-1-yl)-2-(trifluoromethyl)pyrimidin-4-yl)piperidin-4-yl)methoxy)acetamido)-ethanesulfonic acid], the EC50 on human TGR5 receptor and on mouse TGR5 receptor was < 100 nM each time. Further, the Cmax in data set [1] (mouse, read-out: Cmax) came out at 2.1 ng/mL.
Take `N#Cc1ccc(CCNC(=O)[C@@H]2CCN2c2cc(N3CCC(CCNc4c(NCCC(=O)O)c(=O)c4=O)CC3)nc(C(F)(F)F)n2)cc1` [Compound 301, (S)-3-((2-((2-(1-(6-(2-((4-cyanophenethyl)carbamoyl)azetidin-1-yl)-2-(trifluoromethyl)pyrimidin-4-yl)piperidin-4-yl)ethyl)amino)-3,4-dioxocyclobut-1-en-1-yl)amino)propanoic acid]: the EC50 at human TGR5 receptor and at mouse TGR5 receptor was < 100 nM in each case. Moreover, the maximum concentration (Cmax) in data set [1] (mouse, read-out: Cmax) worked out at 2.6 ng/mL.
